Source: PubChem BioAssay AID330 (DTP/NCI, 2004)
Values joined by “and” are separate entries in the source; they are usually repeats but may differ in a detail not shown here. Equal values may be shown once. Toxic doses and inconclusive results are not listed. Rule for the calls: active = survival T/C of 150% or more; inactive = T/C below 125% in these data.

Tested on: P388 leukemia ip, CD2F1 mice, survival T/C
Assay: NCI In Vivo Anticancer Drug Screen. Data for tumor model P388 Leukemia (intraperitoneal) in CD2F1 (CDF1) mice
Settings: endpoint: median survival time, higher = longer survival
Outline: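 Mice carrying the transplanted tumor received test compound or vehicle. Survival was recorded in each group, and the value is the treated-group measurement divided by that of the vehicle-treated control group.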

[1] = dose: 50.0 mg/kg/injection, schedule: Q01DX009 (ip), vehicle: saline with Tween-80
[2] = dose: 100.0 mg/kg/injection, schedule: Q01DX009 (ip), vehicle: saline with Tween-80
[3] = dose: 12.5 mg/kg/injection, schedule: Q01DX009 (ip), vehicle: Klucel (hydroxypropylcellulose) (HPC)
[4] = dose: 25.0 mg/kg/injection, schedule: Q01DX009 (ip), vehicle: Klucel (hydroxypropylcellulose) (HPC)
[5] = dose: 50.0 mg/kg/injection, schedule: Q04DX003 (ip), vehicle: saline with Tween-80
[6] = dose: 200.0 mg/kg/injection, schedule: Q01DX009 (ip), vehicle: saline with Tween-80
[7] = dose: 100.0 mg/kg/injection, schedule: Q04DX003 (ip), vehicle: saline with Tween-80
[8] = dose: 200.0 mg/kg/injection, schedule: Q04DX003 (ip), vehicle: saline with Tween-80

Measured: T/C

NCCCCC(C(=O)NC(Cc1ccc(O)cc1)C(=O)NN)N(C(=O)OCc1ccccc1)C(=O)OCc1ccccc1 (centres undefined)
inactive: dose: 50.0 mg/kg/injection, schedule: Q01DX005 (ip), vehicle: saline + Tween-80 + alcohol 107 % of control | dose: 100.0 mg/kg/injection, schedule: Q01DX005 (ip), vehicle: saline + Tween-80 + alcohol 104 % of control | dose: 200.0 mg/kg/injection, schedule: Q01DX005 (ip), vehicle: saline + Tween-80 + alcohol 94 % of control

CC(=O)OC(C)(C)c1ccccc1[S+]1OC(C)(C)c2ccccc21 (centres undefined)
inactive: dose: 25.0 mg/kg/injection, schedule: Q01DX001 (ip), vehicle: other 101 % of control | dose: 50.0 mg/kg/injection, schedule: Q01DX001 (ip), vehicle: other 104 % of control | dose: 100.0 mg/kg/injection, schedule: Q01DX001 (ip), vehicle: other 107 % of control

Cc1cc2nc3c(=O)[nH]c(=O)nc-3n(CC(O)C(O)C(O)CO)c2cc1C (centres undefined)
inactive: [1] 99 % of control and 104 % of control | [2] 96 % of control and 98 % of control

CCCNCC(O)c1cc(C(F)(F)F)nc2c(C(F)(F)F)cccc12 (centres undefined)
inactive: dose: 12.5 mg/kg/injection, schedule: Q01DX009 (ip), vehicle: saline with Tween-80 99 % of control | dose: 25.0 mg/kg/injection, schedule: Q01DX009 (ip), vehicle: saline with Tween-80 95 % of control | [1] 107 % of control

O=C(CCCl)Nc1c(Cl)cccc1Cl
inactive: dose: 50.0 mg/kg/injection, schedule: Q01DX005 (ip), vehicle: saline with Tween-80 96 % of control | dose: 100.0 mg/kg/injection, schedule: Q01DX005 (ip), vehicle: saline with Tween-80 99 % of control | dose: 200.0 mg/kg/injection, schedule: Q01DX005 (ip), vehicle: saline with Tween-80 96 % of control

CCCc1[nH]n(-c2ccccc2)c(=O)c1N=Nc1cccc(C(F)(F)F)c1
inactive: dose: 50.0 mg/kg/injection, schedule: Q01DX009 (ip), vehicle: saline 93 % of control | dose: 100.0 mg/kg/injection, schedule: Q01DX009 (ip), vehicle: saline 96 % of control | dose: 200.0 mg/kg/injection, schedule: Q01DX009 (ip), vehicle: saline 90 % of control

O=C(/C=C\c1ccc(Cl)cc1)c1ccccc1
inactive: [3] 101 % of control and 91 % of control | [4] 100 % of control | dose: 50.0 mg/kg/injection, schedule: Q01DX009 (ip), vehicle: Klucel (hydroxypropylcellulose) (HPC) 93 % of control and 95 % of control | dose: 50.0 mg/kg/injection, schedule: Q01DX009 (ip), vehicle: gum acacia 98 % of control | dose: 100.0 mg/kg/injection, schedule: Q01DX009 (ip), vehicle: Klucel (hydroxypropylcellulose) (HPC) 99 % of control and 93 % of control | dose: 100.0 mg/kg/injection, schedule: Q01DX009 (ip), vehicle: gum acacia 104 % of control | dose: 200.0 mg/kg/injection, schedule: Q01DX009 (ip), vehicle: Klucel (hydroxypropylcellulose) (HPC) 98 % of control and 100 % of control | dose: 200.0 mg/kg/injection, schedule: Q01DX009 (ip), vehicle: gum acacia 104 % of control | dose: 400.0 mg/kg/injection, schedule: Q01DX009 (ip), vehicle: Klucel (hydroxypropylcellulose) (HPC) 108 % of control and 92 % of control | dose: 400.0 mg/kg/injection, schedule: Q01DX009 (ip), vehicle: gum acacia 104 % of control

O=c1[nH]c2c(ccc3cccnc32)c2c1CCC2
inactive: dose: 12.5 mg/kg/injection, schedule: Q04DX003 (ip), vehicle: saline with Tween-80 98 % of control | dose: 25.0 mg/kg/injection, schedule: Q04DX003 (ip), vehicle: saline with Tween-80 95 % of control | [5] 98 % of control

Cn1nnn(Cc2ccccc2)/c1=N/C(=S)Nc1ccccc1
inactive: dose: 100.0 mg/kg/injection, schedule: Q01DX001 (ip), vehicle: Klucel (hydroxypropylcellulose) (HPC) 99 % of control | dose: 200.0 mg/kg/injection, schedule: Q01DX001 (ip), vehicle: Klucel (hydroxypropylcellulose) (HPC) 95 % of control | dose: 400.0 mg/kg/injection, schedule: Q01DX001 (ip), vehicle: Klucel (hydroxypropylcellulose) (HPC) 86 % of control

C/C(=N\NC(=S)Nc1ccc(S(=O)(=O)O)cc1)c1ccccn1
inactive: dose: 50.0 mg/kg/injection, schedule: Q01DX005 (ip), vehicle: Klucel (hydroxypropylcellulose) (HPC) 107 % of control | dose: 50.0 mg/kg/injection, schedule: Q01DX005 (ip), vehicle: suspension in saline 101 % of control | dose: 100.0 mg/kg/injection, schedule: Q01DX005 (ip), vehicle: Klucel (hydroxypropylcellulose) (HPC) 108 % of control | dose: 100.0 mg/kg/injection, schedule: Q01DX005 (ip), vehicle: suspension in saline 105 % of control | dose: 200.0 mg/kg/injection, schedule: Q01DX005 (ip), vehicle: Klucel (hydroxypropylcellulose) (HPC) 106 % of control | dose: 200.0 mg/kg/injection, schedule: Q01DX005 (ip), vehicle: suspension in saline 121 % of control | dose: 400.0 mg/kg/injection, schedule: Q01DX005 (ip), vehicle: Klucel (hydroxypropylcellulose) (HPC) 115 % of control

O=C(O)C1(NO)CCCC1
inactive: dose: 100.0 mg/kg/injection, schedule: Q04DX003 (ip), vehicle: saline 100 % of control | dose: 200.0 mg/kg/injection, schedule: Q04DX003 (ip), vehicle: saline 118 % of control | dose: 400.0 mg/kg/injection, schedule: Q04DX003 (ip), vehicle: saline 95 % of control

CCOC(=O)c1c(NC(=S)NC)sc(C)c1C
inactive: [1] 106 % of control | [2] 89 % of control | [6] 106 % of control

CN(C)CCSCC(=O)Nc1ccccc1Cl
inactive: dose: 60.0 mg/kg/injection, schedule: Q01DX005 (ip), vehicle: saline 103 % of control | dose: 120.0 mg/kg/injection, schedule: Q01DX005 (ip), vehicle: saline 106 % of control | dose: 240.0 mg/kg/injection, schedule: Q01DX005 (ip), vehicle: saline 106 % of control

O=P1(Oc2ccc(N=C=S)cc2)OCCCO1
inactive: dose: 60.0 mg/kg/injection, schedule: Q01DX005 (ip), vehicle: Klucel (hydroxypropylcellulose) (HPC) 102 % of control | dose: 120.0 mg/kg/injection, schedule: Q01DX005 (ip), vehicle: Klucel (hydroxypropylcellulose) (HPC) 103 % of control | dose: 240.0 mg/kg/injection, schedule: Q01DX005 (ip), vehicle: Klucel (hydroxypropylcellulose) (HPC) 104 % of control

CC(C)C[N+]1(Cc2ccc(Cl)c(Cl)c2)CCOCC1
inactive: dose: 100.0 mg/kg/injection, schedule: Q04DX002 (ip), vehicle: saline with Tween-80 99 % of control | dose: 200.0 mg/kg/injection, schedule: Q04DX002 (ip), vehicle: saline with Tween-80 108 % of control

CC(=O)COc1ccccc1NC(C)=O
inactive: [7] 109 % of control | [8] 90 % of control | dose: 400.0 mg/kg/injection, schedule: Q04DX003 (ip), vehicle: saline with Tween-80 100 % of control

CCOC(=O)OCC(=O)[C@@]1(O)CC[C@H]2[C@@H]3CCC4=CC(=O)CC[C@]4(C)[C@H]3[C@@H](O)C[C@@]21C
inactive: [1] 104 % of control | [5] 100 % of control | [2] 100 % of control | [7] 100 % of control | [6] 90 % of control | [8] 100 % of control

COc1cc2c(cc1OC)CN1CCCC1C2 (centres undefined)
inactive: dose: 6.25 mg/kg/injection, schedule: Q01DX005 (ip), vehicle: saline with Tween-80 97 % of control | dose: 12.5 mg/kg/injection, schedule: Q01DX005 (ip), vehicle: saline with Tween-80 108 % of control | dose: 25.0 mg/kg/injection, schedule: Q01DX005 (ip), vehicle: saline with Tween-80 101 % of control

O=NNc1ccc(-c2ccc(NN=O)cc2)cc1
inactive: dose: 3.12 mg/kg/injection, schedule: Q01DX009 (ip), vehicle: water 97 % of control | dose: 6.25 mg/kg/injection, schedule: Q01DX009 (ip), vehicle: water 95 % of control | dose: 12.5 mg/kg/injection, schedule: Q01DX009 (ip), vehicle: water 97 % of control | dose: 25.0 mg/kg/injection, schedule: Q01DX009 (ip), vehicle: water 100 % of control and 89 % of control | dose: 50.0 mg/kg/injection, schedule: Q01DX009 (ip), vehicle: water 89 % of control and 94 % of control | dose: 100.0 mg/kg/injection, schedule: Q01DX009 (ip), vehicle: water 88 % of control | dose: 200.0 mg/kg/injection, schedule: Q01DX009 (ip), vehicle: water 91 % of control

O=C(N/N=c1/sc2ccccc2n1Cc1ccccc1)c1ccncc1
inactive: dose: 6.25 mg/kg/injection, schedule: Q01DX009 (ip), vehicle: Klucel (hydroxypropylcellulose) (HPC) 106 % of control | [3] 100 % of control | [4] 89 % of control

CSC(=S)N/N=C(\C)c1cccs1
inactive: [1] 91 % of control | [2] 111 % of control | [6] 110 % of control
